From US10751319B2, “Collection device and methods for use” (CRITITECH, INC., priority 2015, dated 2020)
Several values for one entry are separate records, joined by “and”; a condition that tells them apart may be missing. Identical values can stand only once.

Assays:
Format in all cases: physicochemical
[1] = BET analysis (surface area); details: listed as raw paclitaxel
Description: A known mass between 200 and 300 mg of the analyte was added to a 30 mL sample tube. The loaded tube was then mounted to a Porous Materials Inc. SORPTOMETER®, model BET-202A. The automated test was then carried out using the BETWIN® software package and the surface area of each sample was subsequently calculated.

Bulk density = details: room temperature
Description: The mass of the drug was measured to a nearest 0.1 mg, the volume was determined to the nearest 0.1 mL and the density calculated.

[2] = Docetaxel dissolution study, USP Apparatus II (Paddle); details: methanol/water 15/85, 37° C., pH 7, 75 rpm
Description: At 5, 15, 30, 60, 120 and 225 minutes, a 5 mL aliquot was removed, filtered through a 0.22 μm filter, and analyzed on a UV/VIS spectrophotometer at 232 nm. Absorbance values of the samples were compared to those of standard solutions prepared in dissolution media to determine the amount of material dissolved.

| Compound | Surface area [1] [m^2/g] | Bulk Density (Bulk density) [g/mL] | Dissolution ([2]; 0 minutes) [%] | Dissolution ([2]; 5 minutes) [%] | Dissolution ([2]; 15 minutes) [%] | Dissolution ([2]; 30 minutes) | Dissolution ([2]; 60 minutes) [%] | Dissolution ([2]; 120 minutes) [%] | Dissolution ([2]; 225 minutes) [%] |
| --- | --- | --- | --- | --- | --- | --- | --- | --- | --- |
| CC(=O)O[C@H]1C(=O)[C@@]2(C)[C@H]([C@H](OC(=O)c3ccccc3)[C@]3(O)C[C@H](OC(=O)[C@H](O)[C@@H](NC(=O)c4ccccc4)c4ccccc4)C(C)=C1C3(C)C)[C@]1(OC(C)=O)CO[C@@H]1C[C@@H]2O [Paclitaxel Raw Material, paclitaxel] | 7.25 | 0.26 | – | – | – | – | – | – | – |
| CC(=O)O[C@@]12CO[C@@H]1C[C@H](O)[C@@]1(C)C(=O)[C@H](O)C3=C(C)[C@@H](OC(=O)[C@H](O)[C@@H](NC(=O)OC(C)(C)C)c4ccccc4)C[C@@](O)([C@@H](OC(=O)c4ccccc4)[C@H]21)C3(C)C [Docetaxel Raw Material, docetaxel] | – | 0.24 | 0.0 | 3.2 | 6.9 | 11% and 11.2% | 16.4 | 22.4 | 26.8 |
